Our source for the IC50, inhibition and Activity values is ChEMBL document CHEMBL3046266, “Synthesis of curcumin and ethylcurcumin bioconjugates as potential antitumor agents” (Med Chem Res, 2012).

Active and inactive are the calls of the source. No cut-off for these calls is given here.

The test system of data set [1] is Vero. In words: Cytotoxicity against Chlorocebus aethiops (African green monkey) Vero cells by neutral red staining. Format: cell-based. To be noted: chlorocebus sabaeus.
In data set [2] the test system is SK-OV-3. The data set is described as follows: Cytotoxicity against Homo sapiens (human) SKOV3 cells by neutral red staining. Format: functional, cell-based.
Data set [3] deals with SK-MEL. The data set is described as follows: Cytotoxicity against Homo sapiens (human) SK-MEL cells by neutral red staining. Format: functional, cell-based.
For data set [4], the system named is LLC-PK1. The data set is described as follows: Cytotoxicity against Sus scrofa (pig) LLC-PK1 cells by neutral red staining. Format: cell-based.
Data set [5] concerns KB. In words: Cytotoxicity against Homo sapiens (human) KB cells by neutral red staining. Type of data set: functional, cell-based.
Data set [6] has as its system BT-549. In words: Cytotoxicity against Homo sapiens (human) BT549 cells by neutral red staining. Format: functional, cell-based.
The target of data set [7] is T1, DNA topoisomerase 1 (Homo sapiens) (UniProt P11387).
T1 sequence (whole entry): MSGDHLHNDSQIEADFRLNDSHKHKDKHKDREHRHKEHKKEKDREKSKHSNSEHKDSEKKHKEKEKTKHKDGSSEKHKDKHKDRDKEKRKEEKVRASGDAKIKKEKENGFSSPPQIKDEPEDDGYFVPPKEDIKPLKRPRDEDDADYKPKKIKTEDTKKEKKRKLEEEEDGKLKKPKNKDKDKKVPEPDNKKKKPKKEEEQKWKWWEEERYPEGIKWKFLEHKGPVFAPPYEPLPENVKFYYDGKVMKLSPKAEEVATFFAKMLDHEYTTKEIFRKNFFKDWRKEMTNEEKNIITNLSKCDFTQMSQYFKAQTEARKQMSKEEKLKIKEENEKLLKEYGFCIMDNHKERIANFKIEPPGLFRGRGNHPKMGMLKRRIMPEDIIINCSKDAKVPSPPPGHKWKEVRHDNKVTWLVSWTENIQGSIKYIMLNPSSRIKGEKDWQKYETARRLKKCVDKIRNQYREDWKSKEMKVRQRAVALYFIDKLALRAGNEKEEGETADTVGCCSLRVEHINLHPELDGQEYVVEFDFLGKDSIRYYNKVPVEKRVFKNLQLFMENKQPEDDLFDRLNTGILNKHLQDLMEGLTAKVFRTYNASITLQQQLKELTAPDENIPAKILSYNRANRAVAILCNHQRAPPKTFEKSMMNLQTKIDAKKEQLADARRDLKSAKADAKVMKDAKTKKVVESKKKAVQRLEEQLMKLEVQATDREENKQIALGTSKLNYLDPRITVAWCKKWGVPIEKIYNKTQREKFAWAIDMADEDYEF
The data set is described as follows: Inhibition of Homo sapiens (human) topoisomerase 1 assessed as production of nicked DNA up to 25 uM by agarose gel electrophoresis.

The target of data set [8] is DNA topoisomerase 2-alpha (Homo sapiens, UniProt P11388). In words: Inhibition of Homo sapiens (human) topoisomerase 2 assessed as decatenation of KDNA by agarose gel electrophoresis.
Chain of DNA topoisomerase 2-alpha (P11388 whole entry): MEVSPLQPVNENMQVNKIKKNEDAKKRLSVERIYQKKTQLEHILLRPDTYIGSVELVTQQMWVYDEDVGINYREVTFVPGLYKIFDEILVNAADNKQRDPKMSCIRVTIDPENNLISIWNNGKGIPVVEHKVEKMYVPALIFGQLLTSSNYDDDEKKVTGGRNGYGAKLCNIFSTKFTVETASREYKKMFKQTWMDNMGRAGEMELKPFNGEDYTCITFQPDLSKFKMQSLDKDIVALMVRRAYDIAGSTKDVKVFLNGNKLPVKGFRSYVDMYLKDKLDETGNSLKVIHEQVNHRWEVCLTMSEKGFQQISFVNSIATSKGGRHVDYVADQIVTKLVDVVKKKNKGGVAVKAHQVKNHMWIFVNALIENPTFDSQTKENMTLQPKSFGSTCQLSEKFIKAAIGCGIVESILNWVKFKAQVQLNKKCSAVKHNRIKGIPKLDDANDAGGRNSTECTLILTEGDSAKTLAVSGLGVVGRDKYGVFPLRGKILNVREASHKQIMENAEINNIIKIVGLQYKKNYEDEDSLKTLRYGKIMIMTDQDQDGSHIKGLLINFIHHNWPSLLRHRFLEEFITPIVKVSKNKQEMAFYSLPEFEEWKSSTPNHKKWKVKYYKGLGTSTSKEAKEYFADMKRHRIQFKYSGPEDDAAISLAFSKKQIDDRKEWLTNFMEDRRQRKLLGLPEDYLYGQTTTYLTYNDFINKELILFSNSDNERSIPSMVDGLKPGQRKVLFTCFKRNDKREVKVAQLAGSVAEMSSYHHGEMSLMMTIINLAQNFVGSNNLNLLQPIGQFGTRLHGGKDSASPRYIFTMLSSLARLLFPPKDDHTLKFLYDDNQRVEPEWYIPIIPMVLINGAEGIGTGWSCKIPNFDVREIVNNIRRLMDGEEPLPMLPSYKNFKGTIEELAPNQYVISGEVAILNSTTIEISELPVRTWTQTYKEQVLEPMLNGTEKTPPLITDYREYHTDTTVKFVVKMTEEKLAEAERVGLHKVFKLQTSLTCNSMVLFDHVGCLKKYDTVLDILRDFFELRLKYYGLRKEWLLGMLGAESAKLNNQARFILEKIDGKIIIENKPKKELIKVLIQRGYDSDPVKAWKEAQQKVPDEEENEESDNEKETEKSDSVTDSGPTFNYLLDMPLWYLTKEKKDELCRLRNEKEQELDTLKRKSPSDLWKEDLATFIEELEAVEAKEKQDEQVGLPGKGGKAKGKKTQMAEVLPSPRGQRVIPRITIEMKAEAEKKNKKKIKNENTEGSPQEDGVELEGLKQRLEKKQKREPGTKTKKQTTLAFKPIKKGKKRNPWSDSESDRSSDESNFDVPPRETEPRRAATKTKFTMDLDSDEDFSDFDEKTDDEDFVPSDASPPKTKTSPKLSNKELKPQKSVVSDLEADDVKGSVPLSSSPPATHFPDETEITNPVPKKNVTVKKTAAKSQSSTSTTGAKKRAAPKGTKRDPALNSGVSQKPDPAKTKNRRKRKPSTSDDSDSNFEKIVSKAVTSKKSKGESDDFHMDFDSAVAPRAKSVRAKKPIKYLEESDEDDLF
The target in data set [9] is T1, DNA topoisomerase 1 (Homo sapiens). The data set is described as follows: Inhibition of Homo sapiens (human) topoisomerase 1 assessed as relaxation of supercoiled DNA up to 25 uM by agarose gel electrophoresis.
Data set [10] deals with LLC-PK1. In words: Cytotoxicity against Sus scrofa (pig) LLC-PK1 cells up to 25 uM by neutral red staining. Type of data set: cell-based.
The test system of data set [11] is KB. The data set is described as follows: Cytotoxicity against Homo sapiens (human) KB cells up to 25 uM by neutral red staining. Format: functional, cell-based.
In data set [12] the test system is Vero. In words: Cytotoxicity against Chlorocebus aethiops (African green monkey) Vero cells up to 25 uM by neutral red staining. Format: cell-based. To be noted: chlorocebus sabaeus.
In data set [13] the test system is SK-OV-3. In words: Cytotoxicity against Homo sapiens (human) SKOV3 cells up to 25 uM by neutral red staining. Format: functional, cell-based.
Data set [14] concerns BT-549. The data set is described as follows: Cytotoxicity against Homo sapiens (human) BT549 cells up to 25 uM by neutral red staining. Format: functional, cell-based.
For data set [15], the system named is SK-MEL. In words: Cytotoxicity against Homo sapiens (human) SK-MEL cells up to 25 uM by neutral red staining. Format: functional, cell-based.

Take `CCOc1cc(/C=C/C(=O)CC(=O)/C=C/c2ccc(OC(=O)CN(CCCl)CCCl)c(OCC)c2)ccc1OC(=O)CN(CCCl)CCCl`: the IC50 in data set [1] turned out to be 15 µM; in [2], 13.5 µM; in [3], 14.5 µM; in data set [4] it was 13.8 µM; in data set [5], 21.5 µM; in data set [6] it was 11 µM. Moreover, the IC50 in data set [8] was found to be 3.4 µM. Also, the inhibition result in [7] and in [9] was “inactive” throughout.

As for `COc1cc(/C=C/C(=O)CC(=O)/C=C/c2ccc(OC(=O)CNCCN(C)C)c(OC)c2)ccc1OC(=O)CNCCN(C)C`, the Activity entry in data set [10] and in [12] was “Non-toxic” throughout. Also, the half-maximal inhibitory concentration (IC50) in data set [2] was 22.5 µM; in data set [3], 15 µM; in [6] it was 20 µM; in data set [8], 16 µM. Further, the inhibition entry in data set [7] and in [9] was “inactive” in each case. Besides, in data set [11], the outcome was inactive.

`CCOc1cc(/C=C/C(=O)CC(=O)/C=C/c2ccc(OC(=O)CNc3nnc(C)s3)c(OCC)c2)ccc1OC(=O)CNc1nnc(C)s1`: the IC50 in [1] stood at 11.5 µM; in data set [2] it was 15.8 µM; in [3], 12.5 µM; in [4] it was 13 µM; in [5] it was 11.5 µM; in [6], 12 µM. The IC50 in [8] was found to be 2.7 µM. For the same compound, the inhibition result in data set [7] and in [9] was “inactive” in each case.

Consider `COc1cc(/C=C/C(=O)CC(=O)/C=C/c2ccc(OC(=O)CNc3nnc(C)s3)c(OC)c2)ccc1OC(=O)CNc1nnc(C)s1`, for which the IC50 turned out to be 23 µM in data set [1]; 7.5 µM in data set [3]; 22.5 µM in data set [4]; 22.5 µM in data set [5]; 8.75 µM in [6]; 15 µM in [8]. Further, the result in data set [13] was inactive. The inhibition entry in data set [7] and in data set [9] was “inactive” throughout.

As for `COc1cc(/C=C/C(=O)CC(=O)/C=C/c2ccc(OC(=O)CCNc3nnc(C)s3)c(OC)c2)ccc1OC(=O)CCNc1nnc(C)s1`, the IC50 in data set [1] came out at 15 µM; in [3], 7.5 µM; in data set [4], 15.5 µM; in data set [5], 16.3 µM; in [6], 4.25 µM; in data set [8], 3 µM. Also, the outcome in data set [13] was inactive. The inhibition entry in data set [7] and in data set [9] was “inactive” in each case.

Consider `CCOc1cc(/C=C/C(=O)CC(=O)/C=C/c2ccc(OC(=O)CNc3nc4ccc(OC)cc4s3)c(OCC)c2)ccc1OC(=O)CNc1nc2ccc(OC)cc2s1`, for which the outcome in [14] and in data set [11] was inactive. Moreover, the Activity result in data set [10] and in data set [12] was “Non-toxic” in each case. Further, the IC50 in data set [2] was determined as 2.8 µM; in data set [3], 4.75 µM; in [8], 12 µM. In addition, the inhibition result in data set [7] and in [9] was “inactive” each time.

For `CCOc1cc(/C=C/C(=O)CC(=O)/C=C/c2ccc(OC(=O)CNCCN(CC)CC)c(OCC)c2)ccc1OC(=O)CNCCN(CC)CC`, the IC50 is 5 µM in [1]; 14.8 µM in data set [2]; 11.5 µM in data set [3]; 5.8 µM in [4]; 11.5 µM in data set [5]; 10 µM in data set [6]. Moreover, the 50% inhibitory concentration (IC50) in data set [8] was 10 µM. For the same compound, the inhibition result in data set [7] and in data set [9] was “inactive” throughout.

In the case of `COc1cc(/C=C/C(=O)CC(=O)/C=C/c2ccc(OC(=O)CN(CCCl)CCCl)c(OC)c2)ccc1OC(=O)CN(CCCl)CCCl`, the IC50 in data set [1] was more than 25 µM; in data set [3], 7 µM; in [4] it was 20 µM; in data set [5], 19.5 µM; in [6], 6.75 µM; in data set [8], 5 µM. For the same compound, the outcome in data set [13] was inactive. In addition, the inhibition entry in [7] and in [9] was “inactive” each time.

As to `COc1ccc2nc(NCC(=O)Oc3ccc(/C=C/C(=O)CC(=O)/C=C/c4ccc(OC(=O)CNc5nc6ccc(OC)cc6s5)c(OC)c4)cc3OC)sc2c1`, the IC50 came to 15 µM in [3]; 22.5 µM in data set [4]; 23 µM in data set [5]; 18.1 µM in data set [6]; 15 µM in [8]. For the same compound, the result in data set [13] was inactive. In addition, the inhibition result in data set [7] and in data set [9] was “inactive” each time. In addition, the Activity entry in data set [12] is listed as “Non-toxic”.

Turning to `CCN(CC)CCNCC(=O)Oc1ccc(/C=C/C(=O)CC(=O)/C=C/c2ccc(OC(=O)CNCCN(CC)CC)c(OC)c2)cc1OC`, in data set [10], the Activity entry is reported as “Non-toxic”. Further, the IC50 in data set [1] was 19.5 µM; in data set [2], 15.5 µM; in [3], 8.5 µM; in data set [5], 24 µM; in [6] it was 16.3 µM; in [8], 3 µM. Further, the inhibition entry in data set [7] and in [9] was “inactive” in each case.

On to `COc1cccc2c1C(=O)c1c(O)c3c(c(O)c1C2=O)C[C@@](O)(C(=O)CO)C[C@@H]3O[C@H]1C[C@H](N)[C@H](O)[C@H](C)O1` [DOXORUBICIN], for which the IC50 in [1] was more than 5 µM; in data set [2], 0.8 µM; in data set [3], 0.55 µM; in data set [4], 0.75 µM; in [5], less than 0.55 µM; in data set [6], less than 0.55 µM.

Turning to `COc1cc(/C=C/C(=O)CC(=O)/C=C/c2ccc(OC(=O)CCNCCCl)c(OC)c2)ccc1OC(=O)CCNCCCl`, the concentration for half-maximal inhibition (IC50) was found to be 12.5 µM in data set [1]; 23.8 µM in data set [2]; 15 µM in [3]; 16.8 µM in data set [4]; 11.5 µM in data set [5]; 11 µM in data set [6]. The IC50 in data set [8] turned out to be 2.9 µM. Besides, the inhibition entry in data set [7] and in data set [9] was “inactive” throughout.

Take `CCOc1cc(/C=C/C(=O)CC(=O)/C=C/c2ccc(OC(=O)CNCCCl)c(OCC)c2)ccc1OC(=O)CNCCCl`: the IC50 in [1] came out at 11 µM; in data set [3] it was 13.3 µM; in data set [4], 6.8 µM; in data set [5], 12.5 µM; in data set [6] it was 9 µM; in data set [8], 4.1 µM. Also, the result in data set [13] was inactive. Moreover, the inhibition result in data set [7] and in data set [9] was “inactive” throughout.

On to `CCCCCCC(=O)Oc1ccc(/C=C/C(=O)CC(=O)/C=C/c2ccc(OC(=O)CCCCCC)c(OCC)c2)cc1OCC` [DI-O-HEPTANOYLETHYLCURCUMIN], for which the result in [14], in data set [13], in data set [15] and in data set [11] was inactive. Also, the Activity entry in [10] and in data set [12] was “Non-toxic” each time. In addition, the inhibition entry in data set [7] and in data set [9] was “inactive” throughout. Moreover, in [8], the IC50 is 3 µM.

Turning to `CCOc1cc(/C=C/C(=O)CC(=O)/C=C/c2ccc(OC(=O)c3cccs3)c(OCC)c2)ccc1OC(=O)c1cccs1` [DI-O-(2-THIENOYL)ETHYLCURCUMIN], the outcome in data set [14], in data set [13], in data set [15] and in [11] was inactive. Also, the Activity entry in data set [10] and in data set [12] was “Non-toxic” in each case. The inhibition result in [7] and in data set [9] was “inactive” each time. Also, in data set [8], the IC50 was 23 µM.

Take `CCOc1cc(/C=C/C(=O)CC(=O)/C=C/c2ccc(OC(=O)CNCCN(C)C)c(OCC)c2)ccc1OC(=O)CNCCN(C)C`: the values for the IC50 in data set [4], in data set [6] and in [8] were 22 µM, 11.5 µM and 4 µM, respectively. Also, the outcome in data set [13], in data set [15] and in data set [11] was inactive. The inhibition entry in [7] and in [9] was “inactive” throughout. In data set [12], the Activity result is “Non-toxic”.

As usually defined, the IC50 is the concentration needed to halve the response being measured.
